The source of these data is patent US20230019236A1, “PROTEIN TYROSINE PHOSPHATASE INHIBITORS AND METHODS OF USE THEREOF” (Calico Life Sciences LLC, priority 2019, published 2023).

pIC50: −log10 of the molar value.

Data set [1] deals with Pan T cells isolated from C57BL6 splenocytes. Description: T cell activation assay (CD25/CD69 flow cytometry). The data set is classed as cell-based, mouse. The following applies: with TCR stimulation; Table 5. The procedure:
Example 295: T cell activation and function assays
Pan T cells were isolated from C57BL6 splenocytes using a MACS Pan T cell isolation kit II (Miltenyi Biotec, Auburn, Calif.) according to the manufacturer's instructions. Isolated T cells (200,000 cells/well in a 96 well flat-bottom plate) were cultured in RPMI 1640 supplemented with 10% FBS, […] 2-mercatoethanol, 100 U/mL penicillin, and 100 μg/mL streptomycin, and incubated with the indicated concentration of compound or DMSO in duplicates. After 1 hour, mouse T cell activator CD3/CD28 Dynabeads (ThermoFisher Scientific, Waltham, Mass.) were added at a 1:5 beads to cells ratio to stimulate the T cells for 2 or 3 days as outlined below. T cells with or without compound were incubated in the absence of T cell activator beads (media only) as control.
After 2 days of stimulation, activation status of T cells was assessed by flow cytometry. T cells were first subjected to Zombie Violet™ Fixable Viability dye (BioLegend, San Diego, Calif.) for dead cell exclusion, washed and then stained with BUV805 labeled anti-CD8, APC-R700 labeled anti-CD25 (both from BD Biosciences, San Jose, Calif.) and PE labeled anti-CD69 (BioLegend, San Diego, Calif.) antibodies. After staining, cells were fixed with 2% paraformaldehyde and acquired on a BD LSRFortessa™ X-20 flow cytometer (BD Biosciences, San Jose, Calif.) using BD FACSDiva™ software. Data was analyzed using FlowJo V10 (Flow Jo LLC, Ashland, OR). Dead cells were excluded and frequencies of activated CD8 T cells was reported as the frequency of CD25+ or CD69+ cells within the CD8+ population. The expression level of CD25 and CD69 indicates the activation status of cells on a per cell basis and was evaluated by the mean fluorescence intensities (MFI) of CD25 and CD69.
For orientation: Flow cytometry measures light scatter and fluorescence of single cells or particles in a stream.

Data set [2] concerns the target T1, His tagged full-length PTP1B protein (Homo sapiens, UniProt P18031).
T1 construct: made in house
T1 sequence (P18031 with tags, fused parts or gaps): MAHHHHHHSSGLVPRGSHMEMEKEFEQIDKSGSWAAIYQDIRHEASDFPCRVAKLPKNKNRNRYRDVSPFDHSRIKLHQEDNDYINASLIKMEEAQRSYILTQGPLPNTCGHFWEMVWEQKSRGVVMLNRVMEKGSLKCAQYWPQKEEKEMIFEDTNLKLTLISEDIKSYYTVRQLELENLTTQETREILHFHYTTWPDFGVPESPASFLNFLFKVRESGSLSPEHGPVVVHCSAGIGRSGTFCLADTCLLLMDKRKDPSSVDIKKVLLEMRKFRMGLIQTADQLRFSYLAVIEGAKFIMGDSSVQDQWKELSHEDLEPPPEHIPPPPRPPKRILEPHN
Description: Mobility Shift Assay (MSA) used to determine potency of PTP1B inhibitors. The format is biochemical. As to conditions: Table 2. The procedure: The enzymatic assay used to determine activity is a mobility shift assay using a LabChip EZ Reader by Caliper Life Sciences. The enzymatic reaction was carried out in assay buffer (50 mM HEPES pH 7.5, 1 mM EGTA, 10 mM EDTA, 0.01% Tween® 20, and 2 mM DTT). […] The enzyme (at 0.5 nM) was incubated with compound for 10 minutes at room temperature. […] The % inhibition was then used to calculate the IC50 values.

Data set [3] concerns B16F10 mouse melanoma cells. Nature of the data set: B16F10 IFNγ-induced cellular growth inhibition assay. The format is cell-based. The following applies: absence of IFNγ. How it is done: Example 294: B16F10 IFNγ-Induced Cellular Growth Inhibition Assay
B16F10 mouse melanoma cells (ATCC Cat# CRL-6475, Manassas, Va.) were seeded at a density of 500 cells per well in a 384-well clear bottom plate (Corning Cat#3765, Corning, N.Y.) in 25 μL total volume of DMEM+10% FBS (Sigma Cat# D6429 and Sigma Cat# F4135, St. Louis, MO). Cells were allowed to adhere overnight at 37° C. +5% CO2. On the following day, 12.5 μL of mouse IFNγ (RD systems Cat# 485-MI/CF, Minneapolis, Minn.) was added to half of the plate (columns 13-24) at a concentration of 2 ng/mL for a final assay concentration of 0.5 ng/mL of IFNγ. Media only (12.5 μL of DMEM+10% FBS) was added to the remainder of the plate (columns 1-12). Next, compounds resuspended in DMSO (Sigma Cat# D2650) at 100 mM were diluted in semi-log dilutions in DMSO ranging from 100 mM to 0.001 mM and DMSO only controls were included. The compound/DMSO dilutions were further diluted 1:250 in DMEM+10% FBS, and 12.5 μL of these dilutions were added in triplicates to cells of both treatment arms (with and without IFNγ). Final compound concentrations ranged from 100 μM to 0.001 μM with a final DMSO concentration of 0.1%. Compounds were only dosed in the inner 240 wells, avoiding the outer 2-well perimeter of the plate to minimize edge effects. Finally, the plate was loaded into an IncuCyte® S3 Live Cell Analysis System (Essen Bioscience-Sartorius, Ann Arbor, Mich.) maintained in a 37° C. +5% CO2 incubator, allowed to equilibrate for 2 hours, and imaged every 6 hours for 5 days. Confluence over time for compound dilutions in the presence and absence of IFNγ was measured. Growth inhibition values were obtained when the “DMSO/no IFNγ” control reached confluence >95%. At these time points, the percent growth inhibition of each compound at the indicated concentration was calculated relative to the “DMSO/with IFNγ” control.

In data set [4] the test system is MC-38 murine colon adenocarcinoma. Nature of the data set: In vivo efficacy in MC38 syngeneic tumor model. The following applies: 300 mg/kg/dose oral BID for 21 days. How it is done: All experiments were conducted in compliance with AbbVie's Institutional Animal Care and Use Committee and the National Institutes of Health Guide for Care and Use of Laboratory Animals guidelines in a facility accredited by the Association for the Assessment and Accreditation of Laboratory Animal Care. […] The mice were group-housed 10 per cage. Food and water were available ad libitum. Animals were acclimated to the animal facilities for a period of at least one week prior to commencement of experiments. Animals were tested in the light phase of a 12-hour light:12-hour dark schedule (lights on 0600 hours).
Cells were grown to passage 3 in vitro. […] The injection volume was 0.1 mL and was composed of a 1:1 mixture of S-MEM and Matrigel® (Corning, N.Y., USA). […] Following size match, treatments were initiated on the same day. […] Compound 124 was formulated in 5% DMSO, 5% Tween 80 (Polysorbate 80), 20% PEG-400 and 70% D5W (5% dextrose in water) and was dosed at 10 mL/kg. […] Tumor volume was calculated three times weekly. Measurements of the length (L) and width (W) of the tumor were taken via electronic caliper and the volume was calculated according to the following equation: V=L×W^2/2 using Study Director Version 3.1.399.22 (Studylog Systems, Inc, CA, USA). […] Reported TGIMax is the largest TGI value for any timepoint that tumors volumes were collected for that treatment group.

As usually defined, the pIC50 is the IC50 on a negative log10 scale, so that one unit is a factor of ten. For the compound `COc1ccc2cc(O)c(N3CC(=O)NS3(=O)=O)c(F)c2c1` [Compound 124, 5-(1-fluoro-3-hydroxy-7-methoxynaphthalen-2-yl)-1λ^6,2,5-thiadiazolidine-1,1,3-trione], the “T cell activation and T cell function” value in data set [1] is “increased both T cell activation and T cell function”. The negative logarithm of the IC50 (pIC50) in data set [2] is 8.00 to 9.00. Further, the “growth inhibition in the absence of IFNγ” value in data set [3] is on record as “no observed growth inhibition”. The tolerability entry in data set [4] is on record as “well tolerated, without obvious adverse health events”.
`CC(C)(O)CCOc1ccc2cc(O)c(N3CC(=O)NS3(=O)=O)c(F)c2c1` [Compound 182, 5-[1-fluoro-3-hydroxy-7-(3-hydroxy-3-methylbutoxy)naphthalen-2-yl]-1λ^6,2,5-thiadiazolidine-1,1,3-trione]: the “T cell activation and T cell function” value in data set [1] was “increased both T cell activation and T cell function”. Moreover, in data set [4], the tolerability entry is recorded as “well tolerated, without obvious adverse health events”.
Regarding `O=C1CN(c2c(O)cc3ccc(C4=CCN(S(=O)(=O)C5CC5)C4)cc3c2F)S(=O)(=O)N1` [Compound 113, 5-{7-[1-(cyclopropanesulfonyl)-2,5-dihydro-1H-pyrrol-3-yl]-1-fluoro-3-hydroxynaphthalen-2-yl}-1λ^6,2,5-thiadiazolidine-1,1,3-trione], the “T cell activation and T cell function” value in data set [1] was “increased both T cell activation and T cell function”. Besides, the pIC50 in data set [2] was over 9.00.
